For 22 compounds, IC50 results are on record in patent publication US10882844B2, “Compounds useful as immunomodulators” (Bristol-Myers Squibb Company, priority 2016, dated 2021).

pIC50: −log10 of the molar value.

Chain of PD-1/PD-L1 (Q9NZQ7 other isoform, or with tags, fused parts or gaps): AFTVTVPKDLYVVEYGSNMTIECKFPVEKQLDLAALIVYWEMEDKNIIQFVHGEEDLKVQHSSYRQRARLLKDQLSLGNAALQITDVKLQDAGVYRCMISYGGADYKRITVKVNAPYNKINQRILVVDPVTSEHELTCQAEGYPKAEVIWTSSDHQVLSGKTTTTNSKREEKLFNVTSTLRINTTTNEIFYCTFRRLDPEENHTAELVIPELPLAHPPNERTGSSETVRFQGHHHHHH

For one test, the target named is PD-1/PD-L1 (Homo sapiens (Human), UniProt Q9NZQ7). The experiment in a line: PD-1/PD-L1 Homogenous Time-Resolved Fluorescence (HTRF) binding assay. The note with it: PD-1-Ig / PD-L1-His HTRF; value given as number; read-out: Range or IC50. The source says:
The ability of the compounds of formula (I) to bind to PD-L1 was investigated using a PD-1/PD-L1 Homogenous Time-Resolved Fluorescence (HTRF) binding assay.
Homogenous Time-Resolved Fluorescence (HTRF) binding assay.
The interaction of PD-1 and PD-L1 can be assessed using soluble, purified preparations of the extracellular domains of the two proteins. The PD-1 and PD-L1 protein extracellular domains were expressed as fusion proteins with detection tags, for PD-1, the tag was the Fc portion of Immunoglobulin (PD-1-Ig) and for PD-L1 it was the 6 histidine motif (PD-L1-His). All binding studies were performed in an HTRF assay buffer consisting of dPBS supplemented with 0.1% […] bovine serum albumin and 0.05% (v/v) Tween-20. For the h/PD-L1-His binding assay, inhibitors were pre-incubated with PD-L1-His (10 nM final) for 15 m in 4 μl of assay buffer, followed by addition of PD-1-Ig (20 nM final) in 1 μl of assay buffer and further incubation for 15 m. HTRF detection was achieved using europium crypate-labeled anti-Ig (1 nM final) and allophycocyanin (APC) labeled anti-His (20 nM final). Antibodies were diluted in HTRF detection buffer and 5 μl was dispensed on top of the binding reaction. The reaction mixture was allowed to equilibrate for 30 minutes and the resulting signal (665 nm/620 nm ratio) was obtained using an EnVision fluorometer. Additional binding assays were established between the human proteins PD-1-Ig/PD-L2-His (20 & 5 nM, respectively) and CD8O-His/PD-L1-Ig (100 & 10 nM, respectively).
Recombinant Proteins: Human PD-1 (25-167) with a C-terminal human Fc domain of immunoglobulin G (Ig) epitope tag [hPD-1 (25-167)-3S-IG] and human PD-L1 (18-239) with a C-terminal His epitope tag [hPD-L1(18-239)-TVMV-His] were expressed in HEK293T cells and purified sequentially by ProteinA affinity chromatography and size exclusion chromatography. Human PD-L2-His and CD80-His was obtained through commercial sources.
The table below lists the IC50 values for representative examples of this disclosure measured in the PD-1/PD-L1 Homogenous Time-Resolved Fluorescence (HTRF) binding assay. Ranges are as follows: A=0.18 nM-0.99 nM; B=1.0 nM-5.0 nM; C=5.01 nM-10.1 nM; D=10.2 nM-200 nM; E=201 nM→10 uM
For `CCC[C@H](NCc1cc(Cl)c(OCc2cccc(-c3ccc4oc(N5CCN(C)CC5)nc4c3)c2C)cc1OCc1cncc(C#N)c1)C(=O)O` [Example 2012, (S)-2-((5-chloro-2-((5-cyanopyridin-3-yl)methoxy)-4-((2-methyl-3-(2-(4-methylpiperazin-1-yl)benzo[d]oxazol-5-yl)benzyl)oxy)benzyl)amino)pentanoic Acid], the pIC50 is 8.14.
For `Cc1c(COc2cc(OCc3cncc(C#N)c3)c(CN3CCCC[C@H]3C(=O)O)cc2Cl)cccc1-c1ccc2oc(C3CCN(C)C3)nc2c1` (stereo partly drawn) [Example 1008, (2S)-1-(5-chloro-2-((5-cyanopyridin-3-yl)methoxy)-4-((2-methyl-3-(2-(1-methylpyrrolidin-3-yl)benzo[d]oxazol-5-yl)benzyl)oxy)benzyl)piperidine-2-carboxylic Acid], the pIC50 was 9.17.
For `Cc1c(COc2cc(OCc3cncc(C#N)c3)c(CN3CCCC[C@H]3C(=O)O)cc2Cl)cccc1-c1ccc2ncc(C3=CCCNC3)nc2c1` [Example 1027, (S)-1-(5-Chloro-2-((5-cyanopyridin-3-yl)methoxy)-4-((2-methyl-3-(3-(1,2,5,6-tetra-hydropyridin-3-yl)quinoxalin-6-yl)benzyl)oxy)benzyl)piperidine-2-carboxylic Acid], the pIC50 is 8.77.

The test is the same for the next values; noted with them: PD-1-Ig / PD-L1-His HTRF; value given as range class; read-out: Range or IC50.
For the compound `Cc1c(COc2cc(OCc3cncc(C#N)c3)c(CN3CCCC[C@H]3C(=O)O)cc2Cl)cccc1-c1ccc2ncc(C3=CC4CCC(C3)N4)nc2c1` (stereo partly drawn) [Example 1029, (2S)-1-(4-((3-(3-(8-Azabicyclo[3.2.1]oct-2-en-3-yl)quinoxalin-6-yl)-2-methylbenzyl)-oxy)-5-chloro-2-((5-cyanopyridin-3-yl)methoxy)benzyl)piperidine-2-carboxylic acid], the pIC50 was 8.30 to 9.00.
Consider `Cc1c(COc2cc(OCc3cncc(C#N)c3)c(CN3CCCC[C@H]3C(=O)O)cc2Cl)cccc1-c1ccc2ncc(N3CCN(C)CC3)nc2c1` [Example 1031, (S)-1-(5-chloro-2-((5-cyanopyridin-3-yl)methoxy)-4-((2-methyl-3-(3-(4-methylpiperazin-1-yl)quinoxalin-6-yl)benzyl)oxy)benzyl)piperidine-2-carboxylic Acid], for which the pIC50 was 8.00 to 8.30.
Still for that read-out and setting: the figure for `Cc1c(COc2cc(OCc3cncc(C#N)c3)c(C=O)cc2Cl)cccc1-c1ccc2oc(C3CCN(C)CC3)nc2c1` [Example 1019, 5-((4-chloro-2-formyl-5-((2-methyl-3-(2-(1-methylpiperidin-4-yl)benzo[d]oxazol-5-yl)benzyl)oxy)phenoxy)methyl)nicotinonitrile] is 8.00 to 8.30; for `CCN(CC)C1CCC(c2nc3cc(-c4cccc(COc5cc(OCc6cncc(C#N)c6)c(CN6CCCC[C@H]6C(=O)O)cc5Cl)c4C)ccc3o2)CC1` (stereo partly drawn) [Example 1012, (S)-1-(5-chloro-2-((5-cyanopyridin-3-yl)methoxy)-4-((3-(2-(4-(diethylamino)cyclohexyl)benzo[d]oxazol-5-yl)-2-methylbenzyl)oxy)benzyl)piperidine-2-carboxylic Acid] it is 9.00 to 9.74.
Turning to `Cc1c(COc2cc(OCc3cncc(C#N)c3)c(CN3CCCC[C@H]3C(=O)O)cc2Cl)cccc1-c1ccc2oc(C3(C)CCNCC3)nc2c1` [Example 1011, (S)-1-(5-chloro-2-((5-cyanopyridin-3-yl)methoxy)-4-((2-methyl-3-(2-(4-methylpiperidin-4-yl)benzo[d]oxazol-5-yl)benzyl)oxy)benzyl)piperidine-2-carboxylic Acid], the pIC50 was 8.30 to 9.00.
As to `Cc1c(COc2cc(OCc3cncc(C#N)c3)c(CN(C)C(CO)CO)cc2Cl)cccc1-c1ccc2oc(N3CCN(C)CC3)nc2c1` [Example 2014], the pIC50 is 8.30 to 9.00.
Consider `Cc1c(COc2cc(OCc3cncc(C#N)c3)c(CN[C@@](C)(CO)C(=O)O)cc2Cl)cccc1-c1ccc2oc(N3CCN(C)CC3)nc2c1` [Example 2011, (S)-2-((5-chloro-2-((5-cyanopyridin-3-yl)methoxy)-4-((2-methyl-3-(2-(4-methylpiperazin-1-yl)benzo[d]oxazol-5-yl)benzyl)oxy)benzyl)amino)-3-hydroxy-2-methylpropanoic Acid], for which the pIC50 was 8.30 to 9.00.
Same read-out and setting: the figure for `Cc1c(COc2cc(OCc3cncc(C#N)c3)c(CN3CCCC[C@H]3C(=O)O)cc2Cl)cccc1-c1ccc2oc(C3CC4CCC(C3)N4)nc2c1` (stereo partly drawn) [Example 1006, (2S)-1-(4-((3-(2-(8-azabicyclo[3.2.1]octan-3-yl)benzo[d]oxazol-5-yl)-2-methylbenzyl)oxy)-5-chloro-2-((5-cyanopyridin-3-yl)methoxy)benzyl)piperidine-2-carboxylic Acid] is 8.30 to 9.00.
Consider `Cc1c(COc2cc(OCc3cncc(C#N)c3)c(CN3CCCC[C@H]3C(=O)O)cc2Cl)cccc1-c1ccc2ncc(C3=CC4CCC(C3)N4C(=O)OC(C)(C)C)nc2c1` (stereo partly shown) [Example 1028], for which the pIC50 is 5.00 to 6.70.
In the case of `COC(=O)C1CCC(c2nc3cc(-c4cccc(COc5cc(OCc6cncc(C#N)c6)c(CN6CCCC[C@H]6C(=O)O)cc5Cl)c4C)ccc3o2)CC1` (stereo partly drawn) [Example 1024, (S)-1-(5-chloro-2-((5-cyanopyridin-3-yl)methoxy)-4-((3-(2-(4-(methoxycarbonyl)cyclohexyl)benzo[d]oxazol-5-yl)-2-methylbenzyl)oxy)benzyl)piperidine-2-carboxylic acid], the pIC50 is 8.30 to 9.00.
With `Cc1c(COc2cc(OCc3cncc(C#N)c3)c(CN(C)[C@@](C)(CO)C(=O)O)cc2Cl)cccc1-c1ccc2oc(N3CCN(C)CC3)nc2c1` [Example 2017, (S)-2-((5-chloro-2-((5-cyanopyridin-3-yl)methoxy)-4-((2-methyl-3-(2-(4-methylpiperazin-1-yl)benzo[d]oxazol-5-yl)benzyl)oxy)benzyl)(methyl)amino)-3-hydroxy-2-methylpropanoic Acid], the pIC50 is 9.00 to 9.74.
Same read-out and setting: as for `Cc1c(COc2cc(OCc3cncc(C#N)c3)c(CN3CCCC[C@H]3C(=O)O)cc2Cl)cccc1-c1ccc2oc(C3CCC(C(=O)O)CC3)nc2c1` (single isomer, unassigned) [Example 1026], the figure is 5.00 to 6.70; as for `COc1cc(OCc2cccc(-c3ccc4oc(C5CCN(c6ccccc6)CC5)nc4c3)c2C)c(Cl)cc1CN1CCCC[C@H]1C(=O)O` [Example 1023, (S)-1-(5-chloro-2-methoxy-4-((2-methyl-3-(2-(1-phenylpiperidin-4-yl)benzo[d]oxazol-5-yl)benzyl)oxy)benzyl)piperidine-2-carboxylic Acid], 5.00 to 6.70; as for `Cc1c(COc2cc(OCc3cncc(C#N)c3)c(CN3CCCC[C@H]3C(=O)O)cc2Cl)cccc1-c1ccc2oc(C3CC4CCC(C3)N4C)nc2c1` (stereo partly drawn) [Example 1014, (2S)-1-(5-chloro-2-((5-cyanopyridin-3-yl)methoxy)-4-((2-methyl-3-(2-(8-methyl-8-azabicyclo[3.2.1]octan-3-yl)benzo[d]oxazol-5-yl)benzyl)oxy)benzyl)piperidine-2-carboxylic Acid], 8.30 to 9.00.
Same read-out and setting: as for `Cc1c(COc2cc(OCc3cncc(C#N)c3)c(CN[C@@H](CO)C(=O)O)cc2Cl)cccc1-c1ccc2oc(N3CCN(C)CC3)nc2c1` [Example 2010, (5-chloro-2-((5-cyanopyridin-3-yl)methoxy)-4-((2-methyl-3-(2-(4-methylpiperazin-1-yl)benzo[d]oxazol-5-yl)benzyl)oxy)benzyl)-L-serine], the figure is 8.30 to 9.00; as for `Cc1c(COc2cc(OCc3cncc(C#N)c3)c(CN3CCCC[C@H]3C(=O)O)cc2Cl)cccc1-c1ccc2oc(C34CC(N)(C3)C4)nc2c1` [Example 1015, (S)-1-(4-((3-(2-(3-aminobicyclo[1.1.1]pentan-1-yl)benzo[d]oxazol-5-yl)-2-methylbenzyl)oxy)-5-chloro-2-((5-cyanopyridin-3-yl)methoxy)benzyl)piperidine-2-carboxylic Acid], 8.00 to 8.30; as for `Cc1c(COc2cc(OCc3cncc(C#N)c3)c(CNC(CO)CO)cc2Cl)cccc1-c1ccc2oc(N3CCN(C)CC3)nc2c1` [Example 2008], 8.30 to 9.00.
Same read-out and setting: the figure for `Cc1c(COc2cc(OCc3cncc(C#N)c3)c(CN3CCCC[C@H]3C(=O)O)cc2Cl)cccc1-c1ccc2oc(C3CCN(C)CC3)nc2c1` [Example 1001, (S)-1-(5-chloro-2-((5-cyanopyridin-3-yl)methoxy)-4-((2-methyl-3-(2-(1-methylpiperidin-4-yl)benzo[d]oxazol-5-yl)benzyl)oxy)benzyl)piperidine-2-carboxylic Acid] is 9.00 to 9.74; for `Cc1c(COc2cc(OCc3cncc(C#N)c3)c(CNC(C)(CO)CO)cc2Cl)cccc1-c1ccc2oc(N3CCN(C)CC3)nc2c1` [Example 2009] it is 9.00 to 9.74.
